Measurements reported in paper PMC9532951, “Identification and characterization of a novel SNAT2 (SLC38A2) inhibitor reveals synergy with glucose transport inhibition in cancer cells” (Frontiers in Pharmacology, 2022).
Several values for one entry are separate records, joined by “and”; a condition that tells them apart may be missing. Equal values may be shown once.

Key:
SNAT2 = target: T1, SNAT2 (Homo sapiens, UniProt Q96QD8); test: FMP assay with betaine in amino acid depleted SKOV3 cells; type: cell-based; design: SKOV3 cells were pre-incubated in starvation medium for 15 h to induce SNAT2 expression; endogenous in cells; host or cells: SKOV3 ovarian cancer cells, amino acid depleted for 15 h
T1 sequence (Q96QD8 1-506): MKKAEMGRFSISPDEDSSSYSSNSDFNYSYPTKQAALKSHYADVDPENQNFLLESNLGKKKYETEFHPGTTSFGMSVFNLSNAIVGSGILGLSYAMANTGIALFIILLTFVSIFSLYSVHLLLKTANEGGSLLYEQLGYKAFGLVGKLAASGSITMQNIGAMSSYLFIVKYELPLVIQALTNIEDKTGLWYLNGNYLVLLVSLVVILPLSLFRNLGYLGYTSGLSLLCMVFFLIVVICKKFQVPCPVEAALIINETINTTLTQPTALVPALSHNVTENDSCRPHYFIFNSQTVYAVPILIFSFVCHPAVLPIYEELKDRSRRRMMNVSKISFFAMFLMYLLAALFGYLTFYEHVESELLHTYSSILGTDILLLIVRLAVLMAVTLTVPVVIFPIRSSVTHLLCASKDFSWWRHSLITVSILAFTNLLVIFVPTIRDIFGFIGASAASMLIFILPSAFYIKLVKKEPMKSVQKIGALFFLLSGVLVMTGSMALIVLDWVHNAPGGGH
Procedure: The FLIPR Membrane Potential Blue Explorer Kit (Molecular Devices) was used to characterise inhibitors and to optimise a high-throughput compound screen. Cells were seeded at approximately 60,000 cells/well on a 96-well plate and allowed to attach and grow overnight in a cell incubator. The next day, the cells were washed once with mHBSS and incubated in a starvation medium (composed of mHBSS with 1% dialysed heat-inactivated FBS, 23 mM NaHCO3, 10 U/ml penicillin and 10 μg/ml streptomycin) for 24 h. Cells were then washed once with mHBSS and incubated with 50 µl of the mHBSS-resuspended FMP assay dye and 50 µl of mHBSS (with or without inhibitors) and incubated at room temperature for 30 min. The plate was then placed in an EnSpire Multimode plate reader (PerkinElmer) and four sequential measurements of fluorescence were recorded as a baseline reference. […] The excitation wavelength was set to 530 nm and the emission was detected at 565 nm. The Δ fluorescent signal reported in the figures was taken 30 s after substrate addition. After the assay was complete, the liquid content of the plate was carefully removed, and the cell monolayer inspected to ensure it remained intact throughout the course of the assay.

SNAT1/2 = test: FMP assay: depolarisation by amino acid substrates in amino acid depleted HCC1806 cells; type: cell-based, human
Procedure: The FLIPR Membrane Potential Blue Explorer Kit (Molecular Devices) was used to characterise inhibitors and to optimise a high-throughput compound screen. Cells were seeded at approximately 60,000 cells/well on a 96-well plate and allowed to attach and grow overnight in a cell incubator. […] Cells were then washed once with mHBSS and incubated with 50 µl of the mHBSS-resuspended FMP assay dye and 50 µl of mHBSS (with or without inhibitors) and incubated at room temperature for 30 min. The plate was then placed in an EnSpire Multimode plate reader (PerkinElmer) and four sequential measurements of fluorescence were recorded as a baseline reference. Immediately after the baseline measurements were taken, 25 µl of 5 mM glutamine dissolved in mHBSS was injected into each well and the plate was shaken orbitally for 5 s before a series of consecutive fluorescence measurements were taken. The excitation wavelength was set to 530 nm and the emission was detected at 565 nm. […] After the assay was complete, the liquid content of the plate was carefully removed, and the cell monolayer inspected to ensure it remained intact throughout the course of the assay.

`C[N+](C)(C)CC(=O)O` [Betaine, betaine] was tested, and the Km (SNAT2; SKOV3, 15 h starvation) was 4300 ± 400 µM, the “FMP fluorescence trace (Figure 4E)” value (SNAT2; concentration 0.03, time 45) was 36191 and 39302 and 41186 and the “FMP fluorescence trace (Figure 4E)” value (SNAT2; concentration 0.03, time 60) was 36028 and 39595 and 40874. For the same compound, the “FMP fluorescence trace (Figure 4E)” value (SNAT2; concentration 0.03, time 75) was 36276 and 39484 and 40680, the “FMP fluorescence trace (Figure 4E)” value (SNAT2; concentration 0.03, time 90) was 36701 and 39571 and 40731 and the “FMP fluorescence trace (Figure 4E)” value (SNAT2; concentration 0.03, time 105) was 36288. The “FMP fluorescence trace (Figure 4E)” value (SNAT2; concentration 0.1, time 45) was 39809 and 43033 and 44738, the “FMP fluorescence trace (Figure 4E)” value (SNAT2; concentration 0.1, time 60) was 40091 and 43354 and 44846 and the “FMP fluorescence trace (Figure 4E)” value (SNAT2; concentration 0.1, time 75) was 40044 and 43600 and 44897. For the same compound, the “FMP fluorescence trace (Figure 4E)” value (SNAT2; concentration 0.1, time 90) was 40287 and 43518 and 45010, the “FMP fluorescence trace (Figure 4E)” value (SNAT2; concentration 0.3, time 45) was 39193 and 54954 and 48855 and the “FMP fluorescence trace (Figure 4E)” value (SNAT2; concentration 0.3, time 60) was 39317 and 55361 and 48804. The “FMP fluorescence trace (Figure 4E)” value (SNAT2; concentration 0.3, time 75) was 39855 and 55442 and 48718, the “FMP fluorescence trace (Figure 4E)” value (SNAT2; concentration 0.3, time 90) was 39384 and 55296 and 48820 and the “FMP fluorescence trace (Figure 4E)” value (SNAT2; concentration 0.3, time 105) was 39825 and 55517 and 48933. The “FMP fluorescence trace (Figure 4E)” value (SNAT2; concentration 1, time 45) was 52793 and 67651 and 60777, the “FMP fluorescence trace (Figure 4E)” value (SNAT2; concentration 1, time 60) was 53223 and 68372 and 61573 and the “FMP fluorescence trace (Figure 4E)” value (SNAT2; concentration 1, time 75) was 53467 and 68816 and 61749. The “FMP fluorescence trace (Figure 4E)” value (SNAT2; concentration 1, time 90) was 53620 and 69372 and 62182, the “FMP fluorescence trace (Figure 4E)” value (SNAT2; concentration 1, time 105) was 53487 and 69294 and 62105 and the “FMP fluorescence trace (Figure 4E)” value (SNAT2; concentration 3, time 45) was 69502 and 81716 and 75888. For the same compound, the “FMP fluorescence trace (Figure 4E)” value (SNAT2; concentration 3, time 60) was 70408 and 83092 and 76997, the “FMP fluorescence trace (Figure 4E)” value (SNAT2; concentration 3, time 75) was 71034 and 84131 and 77980 and the “FMP fluorescence trace (Figure 4E)” value (SNAT2; concentration 3, time 90) was 71787 and 84660 and 78697. For the same compound, the “FMP fluorescence trace (Figure 4E)” value (SNAT2; concentration 3, time 105) was 71870 and 85004 and 78476, the “FMP fluorescence trace (Figure 4E)” value (SNAT2; concentration 10, time 45) was 84051 and 99553 and 93004 and the “FMP fluorescence trace (Figure 4E)” value (SNAT2; concentration 10, time 60) was 86308 and 101988 and 95225. The “FMP fluorescence trace (Figure 4E)” value (SNAT2; concentration 10, time 75) was 87856 and 103721 and 96631, the “FMP fluorescence trace (Figure 4E)” value (SNAT2; concentration 10, time 90) was 88823 and 104893 and 97518 and the “FMP fluorescence trace (Figure 4E)” value (SNAT2; concentration 10, time 105) was 89188 and 106421 and 98442. For the same compound, the “FMP fluorescence trace (Figure 4E)” value (SNAT2; concentration 30, time 45) was 86227 and 101310 and 96479, the “FMP fluorescence trace (Figure 4E)” value (SNAT2; concentration 30, time 60) was 89361 and 105122 and 98804 and the “FMP fluorescence trace (Figure 4E)” value (SNAT2; concentration 30, time 75) was 91535 and 107806 and 101327. The “FMP fluorescence trace (Figure 4E)” value (SNAT2; concentration 30, time 90) was 92748 and 109815 and 102783 and the “FMP fluorescence trace (Figure 4E)” value (SNAT2; concentration 30, time 105) was 93673 and 111181 and 103799.

With `NC(=O)CC[C@H](N)C(=O)O` [Glutamine, glutamine] the “FMP response as substrate” value (SNAT1/2; 1 mM) was “strongest response”, the Km (SNAT1/2; FMP signal plateau vs glutamine concentration, HCC1806 AA- (24h)) was 120 ± 10 µM and the FMP fluorescence reading (SNAT1/2; glutamine 0.01mM, t=60 s) was 68858 and 69253 and 69708. The FMP fluorescence reading (SNAT1/2; glutamine 0.01mM, t=75 s) was 69325 and 69681 and 70188, the FMP fluorescence reading (SNAT1/2; glutamine 0.01mM, t=90 s) was 69269 and 70070 and 70405 and the FMP fluorescence reading (SNAT1/2; glutamine 0.01mM, t=105 s) was 69763 and 69788 and 70466. The FMP fluorescence reading (SNAT1/2; glutamine 0.03mM (c24-c26), t=60 s) was 77460 and 80576 and 83628, the FMP fluorescence reading (SNAT1/2; glutamine 0.03mM (c24-c26), t=75 s) was 77730 and 80978 and 84391 and the FMP fluorescence reading (SNAT1/2; glutamine 0.03mM (c24-c26), t=90 s) was 78184 and 81512 and 84232. The FMP fluorescence reading (SNAT1/2; glutamine 0.03mM (c24-c26), t=105 s) was 78227 and 82096 and 85186, the FMP fluorescence reading (SNAT1/2; glutamine 0.03mM (last group, c32-c34), t=60 s) was 64072 and 69800 and 70295 and the FMP fluorescence reading (SNAT1/2; glutamine 0.03mM (last group, c32-c34), t=75 s) was 63883 and 70289 and 71073. The FMP fluorescence reading (SNAT1/2; glutamine 0.03mM (last group, c32-c34), t=90 s) was 63947 and 70196 and 70790, the FMP fluorescence reading (SNAT1/2; glutamine 0.03mM (last group, c32-c34), t=105 s) was 64771 and 70484 and 71450 and the FMP fluorescence reading (SNAT1/2; glutamine 0.1mM, t=60 s) was 88925 and 96285 and 98180. The FMP fluorescence reading (SNAT1/2; glutamine 0.1mM, t=75 s) was 90234 and 97546 and 98972, the FMP fluorescence reading (SNAT1/2; glutamine 0.1mM, t=90 s) was 91221 and 98690 and 100400 and the FMP fluorescence reading (SNAT1/2; glutamine 0.1mM, t=105 s) was 92076 and 98971 and 100952. The FMP fluorescence reading (SNAT1/2; glutamine 0.3mM, t=60 s) was 99455 and 107961 and 111369, the FMP fluorescence reading (SNAT1/2; glutamine 0.3mM, t=75 s) was 100398 and 109749 and 113586 and the FMP fluorescence reading (SNAT1/2; glutamine 0.3mM, t=90 s) was 101543 and 111206 and 114721. The FMP fluorescence reading (SNAT1/2; glutamine 0.3mM, t=105 s) was 102418 and 111967 and 115020, the FMP fluorescence reading (SNAT1/2; glutamine 1mM, t=60 s) was 112569 and 120148 and 129663 and the FMP fluorescence reading (SNAT1/2; glutamine 1mM, t=75 s) was 115039 and 122576 and 131835. The FMP fluorescence reading (SNAT1/2; glutamine 1mM, t=90 s) was 116433 and 124735 and 133470, the FMP fluorescence reading (SNAT1/2; glutamine 1mM, t=105 s) was 117747 and 125438 and 134724 and the FMP fluorescence reading (SNAT1/2; glutamine 1mM, t=120 s) was 118812 and 126597 and 134693. For the same compound, the FMP fluorescence reading (SNAT1/2; glutamine 3mM, t=60 s) was 133412 and 124199 and 129325, the FMP fluorescence reading (SNAT1/2; glutamine 3mM, t=75 s) was 135706 and 127374 and 131981 and the FMP fluorescence reading (SNAT1/2; glutamine 3mM, t=90 s) was 138077 and 129014 and 134980. For the same compound, the FMP fluorescence reading (SNAT1/2; glutamine 3mM, t=105 s) was 139888 and 130819 and 136553, the FMP fluorescence reading (SNAT1/2; glutamine 3mM, t=120 s) was 140944 and the FMP fluorescence reading (SNAT1/2; glutamine 10mM, t=60 s) was 123199 and 132978 and 133617. For the same compound, the FMP fluorescence reading (SNAT1/2; glutamine 10mM, t=75 s) was 127611 and 136168 and 137553, the FMP fluorescence reading (SNAT1/2; glutamine 10mM, t=90 s) was 130129 and 138788 and 140464 and the FMP fluorescence reading (SNAT1/2; glutamine 10mM, t=105 s) was 132559 and 141221 and 142567.
